Measured values as given in PubChem BioAssay (NCI).
Several values for one entry are separate records, joined by “and”; a condition that tells them apart may be missing. Identical values can stand only once.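 Interpolation was linear, between the two tested concentrations surrounding the appropriate level; five concentrations were tested over 48 hours in 96-well plates. Abbreviation: GI50, concentration required for 50% inhibition of growth. TGI is the concentration that stops growth completely.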

Assays:
Assay in all cases: inhibition of tumour cell growth, NCI panel, 48 h
A549 NSCLC = test system: A549 NSCLC
DMS 114 small cell lung = test system: DMS 114 small cell lung
DMS 273 small cell lung = test system: DMS 273 small cell lung
HOP-92 NSCLC = test system: HOP-92 NSCLC
K-562 leukemia = test system: K-562 leukemia
M19-MEL melanoma = test system: M19-MEL melanoma
RXF 393 renal = test system: RXF 393 renal
HS 578T breast = test system: HS 578T breast
MOLT-4 leukemia = test system: MOLT-4 leukemia
SK-MEL-2 melanoma = test system: SK-MEL-2 melanoma

SMILES	TGI (A549 NSCLC) [µM]	TGI (DMS 114 small cell lung) [µM]	TGI (DMS 273 small cell lung)	TGI (HOP-92 NSCLC) [µM]	TGI (K-562 leukemia) [µM]	TGI (M19-MEL melanoma) [µM]	TGI (RXF 393 renal) [µM]	TGI (HS 578T breast) [µM]	TGI (MOLT-4 leukemia) [µM]	TGI (SK-MEL-2 melanoma) [µM]	GI50 (A549 NSCLC) [µM]	GI50 (DMS 114 small cell lung) [µM]	GI50 (DMS 273 small cell lung) [µM]	GI50 (K-562 leukemia) [µM]	GI50 (M19-MEL melanoma) [µM]	GI50 (MOLT-4 leukemia) [µM]	GI50 (RXF 393 renal) [µM]	GI50 (SK-MEL-2 melanoma) [µM]	GI50 (HOP-92 NSCLC) [µM]	GI50 (HS 578T breast) [µM]
CCOC(=O)C1(Cc2ccccc2)CCCCCN1 (centres undefined)	> 100	> 100	> 100 µM	> 100	> 100	> 100	> 100													
O=C1CSC(/C(=C\c2ccc(Cl)cc2)c2nc3ccccc3[nH]2)=N1	16.4		37.6 µM	25.1	> 100	28.8	2.14	53.2	> 100	34.5										
COc1ccc(C(N)=O)cc1N=NN(C)C	> 100		> 100 µM	> 100	> 100	> 100			> 100	> 100										
C=C=C(CC)C(C(=O)OC)N(CC)CC (centres undefined)	> 100	> 100		> 100	> 100	> 100	> 100		> 100											
COc1ccc2c(c1OC)C1=C(C2=O)c2cc3c(cc2CCN1)OCO3	> 100	56.7	52.9 µM	> 100	87.8	> 100	> 100		83.9	66.3										
COc1cc2noc(-c3ccccc3)c2cc1OC	> 100	> 100	> 100 µM	> 100	> 100	> 100	73.8		> 100	> 100										
CN1NC2(CCCCC2)ON=C1c1ccccc1	> 100	> 100		> 100	> 100		> 100		> 100											
COCC(=O)CP(=O)(OC)OC	> 100	> 100	> 100 µM	> 100	> 100	> 100	> 100		> 100	> 100										
O=C(O)/C(=C/c1c(O)ccc2ccccc12)c1csc(-c2nc(/C(=C\c3c(O)ccc4ccccc34)C(=O)O)cs2)n1	55.5	25.5		7.77	38.6	19.9	14		36.9	10.2										
COc1c(C(=O)O)oc2c(OC)cccc12	> 100	> 100	> 100 µM	> 100	> 100	> 100			> 100	> 100										
CN1c2ccccc2N(C)C2C1N(C)c1ccccc1N2C (centres undefined)	> 100	26	> 100 µM	52.4	> 100	32.7	32.6		9.69	69.6										
O=c1cc2ccccc2nn1Cc1ccccc1Cl	> 100	> 100	> 100 µM	> 100	> 100	> 100				> 100										
Cc1nc2c(n1C(C)(C)C)C(=O)c1ccccc1C2=O	> 100		> 100 µM	66.4	> 100	76.5	> 100		> 100	> 100										
CC1(C)OC(=O)C=C([O-])O1.CC1(C)OC(=O)C=C([O-])O1.O=S(=O)([O-])c1ccc([O-])c2ncccc12.O=S(=O)([O-])c1ccc([O-])c2ncccc12.[Ti+4]	> 100	> 100	> 100 µM		> 100	> 100	> 100		> 100	> 100	48.6	> 100	> 100	> 100	> 100	47.8	> 100	> 100		
CCC(=O)C(C)C1=Nc2nnc(CCCCCCCc3nnc4n3C(=O)C(C(C)C(=O)CC)=N4)n2C1=O (centres undefined)	> 100	> 100		> 100	> 100	> 100	> 100		> 100											
CN(CN1C(=O)C2Cc3ccccc3CN2C1=O)c1ccccn1 (centres undefined)	> 100	> 100	> 100 µM		> 100	> 100			> 100	> 100										
CCNC(=O)C#CC(=O)NCC	> 100	> 100	> 10 µM and 39.6 µM	> 100	> 70.2	> 100	> 100		> 100	> 100	> 10	> 10	> 10	> 10	> 10	> 10	> 100	> 10	> 10	
COC1OC(CO)C(O)C(O)C1Br (centres undefined)	> 100		> 100 µM	> 100	> 100	> 100	> 100		> 100											
COc1cccc(C(=O)N2CCc3ccccc32)c1OC	> 100	> 100	> 100 µM	> 100	> 100	> 100	> 100		78.7	> 100										
O=C1C[C@@H]2C(COC(=O)c3ccccc3)N(OCc3ccccc3)C[C@@H]2O1 (some centres undefined)	> 100	> 100	> 100 µM		> 100	> 100	> 100		> 100	> 100										

SMILES	TGI (A549 NSCLC) [µM]	TGI (DMS 114 small cell lung) [µM]	TGI (DMS 273 small cell lung)	TGI (HOP-92 NSCLC) [µM]	TGI (K-562 leukemia) [µM]	TGI (M19-MEL melanoma) [µM]	TGI (RXF 393 renal) [µM]	TGI (HS 578T breast) [µM]	TGI (MOLT-4 leukemia) [µM]	TGI (SK-MEL-2 melanoma) [µM]	GI50 (A549 NSCLC) [µM]	GI50 (DMS 114 small cell lung) [µM]	GI50 (DMS 273 small cell lung) [µM]	GI50 (K-562 leukemia) [µM]	GI50 (M19-MEL melanoma) [µM]	GI50 (MOLT-4 leukemia) [µM]	GI50 (RXF 393 renal) [µM]	GI50 (SK-MEL-2 melanoma) [µM]	GI50 (HOP-92 NSCLC) [µM]	GI50 (HS 578T breast) [µM]
N=c1nnc(=O)c2c(s1)-n1ncc(C(=O)O)c1NN2	> 100	> 100		> 100	> 100	> 100	> 100		> 100											
CC(=O)OC1CC2C(C)(C)C(=O)C=C[C@]2(C)C2CCC3(C)C(c4ccoc4)C(=O)[C@H]4O[C@]43[C@]12C (some centres undefined)		> 100		34.4	59.5	55.2	47.5		46.6	43.4										
Cn1c(=O)nc2n(-c3cccc(F)c3)c3ccccc3nc-2c1=O	53.5		32.8 µM		58.1	5.3	> 100		54.1	52.6										
C1CCN(c2nsc(N3CCCCC3)n2)CC1	> 100	> 100	> 100 µM	> 100	> 100	> 100	> 100		> 100	> 100										
Cc1ccc(S(=O)(=O)NC(=O)NC23CC4CC(CC(F)(C4)C2)C3)cc1	> 100	> 100	> 100 µM	> 100	> 100	> 100	> 100		> 100	> 100										
CC[C@@]1(O)C(=O)NCc2c1cc1n(c2=O)Cc2cc3c(N)cccc3nc2-1	> 69			> 84.1			24.9	> 64.3	16.6	> 17.7	2.5			3.09		0.301	5.35	9.29	8.64	> 17.4
O=C(Nc1nc2ccccc2n1Cc1ccccc1)NC12CC3CC(CC(C3)C1)C2	> 100	> 100	55.1 µM	83.6	> 100	> 100	93.8		> 100	> 100										
Cc1c(C(=O)NCCO)[n+](=O)c2cc(Cl)ccc2n1[O-]	> 100	> 100	> 100 µM	> 100	> 100	> 100	> 100		> 100											
CC(=O)OCCOCNC(=S)N/N=C(\C)c1cnc2ccccc2n1	> 100	47.4	> 100 µM		> 100	77.1	> 100		> 100	> 100										
COc1cccc(NC(=O)CC(=O)N2N=C(N(CCC#N)c3ccccc3C)CC2c2ccccc2)c1 (centres undefined)	> 100	> 100	> 100 µM	> 100	> 100	> 100	> 100		> 100	> 100										
COc1cc2c3c(n(CCCNCCN)c(=O)c2cc1OC)-c1cc2c(cc1C3=O)OCO2	13.7			15.6	3.77		> 51.8	4.76	0.081	8.67	1.61			0.601		< 0.0445	5.36	2.63	2.31	0.419
NC(=O)N/N=C/C(/C=N/NC(N)=O)[N+](=O)[O-]	> 100	> 100		> 100	> 100	> 100	> 100			> 100										
Clc1ccc2[nH]cc(-c3nc(-c4c[nH]c5ncccc45)cs3)c2c1	62.4			8.6	> 100		11.4	> 100	25.6	23.7	2.94			2.42		2.73	2.69	6.51	2.24	7.59
Cc1c(C(=O)c2ccccc2C(=O)O)c2ccccc2n1C	> 100	> 100	> 100 µM		> 100	> 100	> 100		> 100	> 100										
COc1ccccc1NC(=O)n1nc(N)c2ccccc21	> 100			76.5	> 100		> 100	> 100	> 100	> 100	> 86.9			99.8		67.4	36.7	> 100	22.7	36.3
CC1=C[C@H]2c3c(c(O)c(O)c4oc5ccccc5c(=O)c34)[C@H](c3cc(O)c(O)c4oc5ccccc5c(=O)c34)[C@H]2C(C)(C)C1	4.91			5.43	> 100		2.52	9.89	24.1	6.72	0.276			0.22		0.802	0.42	2.24	1.39	0.379
O=[N+]([O-])c1ccc(N/N=C/c2c(O)ccc3ccccc23)nc1	> 100			99.4	> 100		> 100	> 100	> 100	> 100	27.7			> 100		1.62	> 100	> 100	7.94	57.8
CCOc1cc2c(NCCCN(CCO)CCO)ncnc2c(OCC)c1OCC	> 100			> 88	> 100		> 100	> 100	> 100	> 100										
CC(=O)O[C@H]1CC[C@@]2(C)C(=CC[C@H]3C4=CC=C(C(C)=O)[C@@]4(C)CCC32)C1 (some centres undefined)	> 100		> 100 µM	> 100		> 100	63.7		> 100											
O=C1C=C(Br)C(=O)C12CCc1ccccc12 (centres undefined)	55.4	45.2	37.8 µM	27.3	9.26	36.5	19.1	> 82.5	6.89	54.2										
